{"source": "patent US20230212510A1", "about": "“METHODS FOR ORGANOIDS PRODUCTION” (CITY OF HOPE, priority 2020, published 2023)", "molecules": {"B1": {"name": "prolactin: hormone treatment tested for evidence of lactation (protein, UniProt P01236 29-227, looked up)", "Prolactin": "LPICPGGAARCQVTLRDLFDRAVVLSHYIHNLSSEMFSEFDKRYTHGRGFITKAINSCHTSSLATPEDKEQAQQMNQKDFLSLIVSILRSWNEPLYHLVTEVRGMQEAPEAILSKAVEIEEQTKRLLEGMELIVSQVHPETKENEIYPVWSGLPSLQMADEESRLSAYYNLLHCLRRDSHKIDNYLKLLKCRIIHNNNC"}}, "assay_type_in_all_cases": "cell-based, human", "key": {"[1]": {"system": "HMEC organoids in microcontainers", "experiment": "Inhibitor treatment of contractile mammary organoids, contractions counted by time-lapse microscopy", "details": "for effect on contractions (FIG. 5H legend): 2 μM", "method": "Contraction temporal analysis: Organoid contractions were quantified either by hand or by brightness change analysis, as indicated. For brightness change analysis, time-lapse movies were taken, and the time-derivative of the whole-field image brightness was calculated. Local maxima in the time-derivative were interpreted as contractions and spot-checked by eye.\nContractile function implies the presence of contractility-associated structural proteins. […] The association between contractility and ASMA expression was tested with inhibitor experiments. Contractile organoids were treated with either latrunculin B or jasplakinolide, inhibitors of cytoskeleton dynamics that either promote or inhibit actin polymerization, […]. […] Next, organoids were treated with ML-7, an inhibitor of the smooth muscle myosin light-chain kinase that interacts with ASMA."}, "estrogen receptor": {"system": "estrogen receptor", "experiment": "Attempted induction of estrogen receptor expression, immunofluorescence", "details": "25 μM RepSox and 10 μM SB431542 together; drugs maintained, withdrawn, or cells mixed 1:10 with undrugged cells"}, "[2]": {"system": "HMEC organoids in microcontainers", "experiment": "Interventions to alter organoid contraction kinetics (withdrawing media factors, adding matrix)"}, "[3]": {"system": "HMEC organoids in microcontainers", "experiment": "Prolactin treatment of organoids, luminal functional differentiation (morphology, Sudan Black)"}}, "note": "Entries after “also recorded” stand apart in the source; their conditions may differ. Where two headings read alike, the source gives them in different places.", "data": [{"molecule": "O=S(=O)(c1cccc2c(I)cccc12)N1CCCNCC1", "note": "[ML-7]", "values": [{"measurement": "inhibition of contractions", "setting": "[1]; 2 μM ML-7, FIG. 5I", "value": "Partial inhibition"}, {"measurement": "effect on contractions (FIG. 5I legend)", "setting": "[1]; n=59 organoids", "value": "prevented contractions"}]}, {"molecule": "Cc1cccc(-c2[nH]ncc2-c2ccc3ncccc3n2)n1", "note": "[RepSox]", "values": [{"measurement": "estrogen receptor expression by immunofluorescence", "setting": "estrogen receptor", "value": "not detected"}]}, {"molecule": "NC(=O)c1ccc(-c2nc(-c3ccc4c(c3)OCO4)c(-c3ccccn3)[nH]2)cc1", "note": "[SB431542]", "values": [{"measurement": "estrogen receptor expression by immunofluorescence", "setting": "estrogen receptor", "value": "not detected"}]}, {"molecule": "CC(C)NCC(O)c1ccc(O)c(O)c1", "note": "(stereo not drawn) [isoproterenol]", "values": [{"measurement": "effect on contraction kinetics", "setting": "[2]; withdrawn from the media", "value": "no effect"}]}, {"molecule": "C/C1=C\\[C@H](C)C[C@H](C)OC(=O)C[C@H](c2ccc(O)cc2)NC(=O)[C@@H](Cc2c(Br)[nH]c3ccccc23)N(C)C(=O)[C@H](C)NC(=O)[C@@H](C)C1", "note": "[jasplakinolide, Jasplakinolide]", "values": [{"measurement": "effect on contractions (FIG. 5H legend)", "setting": "[1]", "value": "prevented contractions"}]}, {"molecule": "C/C1=C/C(=O)O[C@@H]2C[C@@H](CC[C@H](C)/C=C\\CC1)O[C@@](O)([C@@H]1CSC(=O)N1)C2", "note": "[latrunculin B, Latrunculin B]", "values": [{"measurement": "effect on contractions (FIG. 5H legend)", "setting": "[1]", "value": "prevented contractions"}]}, {"molecule": "CC[C@H](C)[C@@H]1NC(=O)[C@H](Cc2ccc(O)cc2)NC(=O)[C@@H](N)CSSC[C@@H](C(=O)N2CCC[C@H]2C(=O)N[C@@H](CC(C)C)C(=O)NCC(N)=O)NC(=O)[C@H](CC(N)=O)NC(=O)[C@H](CCC(N)=O)NC1=O", "note": "[oxytocin]", "values": [{"measurement": "effect on contraction kinetics", "setting": "[2]; withdrawn from the media", "value": "no effect"}]}, {"molecule": "cholera toxin", "values": [{"measurement": "effect on contraction kinetics", "setting": "[2]", "value": "no effect"}]}, {"molecule": "collagen I: matrix protein added to change the microenvironment", "values": [{"measurement": "effect on contraction kinetics", "setting": "[2]; added at 0 to 2 mg/mL", "value": "no effect"}]}, {"molecule": "B1", "values": [{"measurement": "organoid morphology with prolactin treatment", "setting": "[3]; presence or absence of prolactin, FIG. 6A", "value": "no obvious differences; also recorded: no morphological changes"}, {"measurement": "sudanophilia (Sudan Black, marker of lipophilic secretions)", "setting": "[3]; prolactin treatment, FIG. 6B", "value": "only evident in a single organoid"}]}]}
